In patent US8618151B2, “Inhibitors of HCV NS5A” (Presidio Pharmaceuticals, Inc., priority 2008, dated 2013):

What follows are molecules tested on HCV genotype 1b replicon (assay: HCV replicon assay (1b_Huh-Luc/Neo-ET cell line, luciferase readout)). Conditions: Hepatitis C virus, Huh-7, 72 h, read-out: Inhibition of HCV genotype 1b.
Type: cell-based
Protocol: Biological activity of the compounds of the invention was determined using an HCV replicon assay. The 1b_Huh-Luc/Neo-ET cell line persistently expressing a bicistronic genotype 1b replicon in Huh 7 cells was obtained from ReBLikon GMBH. This cell line was used to test compound inhibition using luciferase enzyme activity readout as a measurement of compound inhibition of replicon levels.
On Day 1 (the day after plating), each compound is added in triplicate to the cells. Plates incubated for 72 h prior to running the luciferase assay. Enzyme activity was measured using a Bright-Glo Kit (cat. number E2620) manufactured by Promega Corporation. The following equation was used to generate a percent control value for each compound. % Control=(Average Compound Value/Average Control)*100
The EC50 value was determined using GraphPad Prism and the following equation: Y=Bottom+(Top−Bottom)/1+10^((Log IC50−X)*HillSlope))
EC50 values of compounds are repeated several times in the replicon assay.

Question: For `COC(=O)N[C@H](C(=O)N1CCC[C@H]1c1nc2ccc3cc(-c4ccc5cc(-c6cnc([C@@H]7CCCN7C(=O)[C@H](NC(=O)OC7CCOCC7)c7ccccc7)[nH]6)ccc5n4)ccc3c2[nH]1)C(C)C` [compound 299], which EC50 is on record?
Answer: Its EC50 is under 1 nM.

Question: With `COC(=O)N[C@H](C(=O)N1CCC[C@H]1c1ncc(-c2ccc(-c3cc4ccc(-c5cnc([C@@H]6CCCN6C(=O)[C@H](NC(=O)OC6CCOCC6)c6ccccc6)[nH]5)cc4cn3)cc2F)[nH]1)C(C)C` [compound 156] as the molecule, how does the EC50 read?
Answer: Its EC50 is under 1 nM.

Question: For `CCNC(=O)N[C@@H](C(=O)N1CCC[C@H]1c1ncc(-c2ccc(-c3nc4ccc(-c5cnc([C@@H]6CCCN6C(=O)[C@@H](NC(=O)OC)C(C)C)[nH]5)cc4o3)cc2)[nH]1)c1ccccc1` [compound 257], which EC50 is on record?
Answer: The EC50 was under 1 nM.

Question: For `COC(=O)N[C@H](C(=O)N1CCC[C@H]1c1nc2ccc(-c3ccc4cc(-c5ccc6nc([C@@H]7CCCN7C(=O)[C@@H](NC(=O)OC)C7CCOCC7)[nH]c6c5)ccc4c3)cc2[nH]1)C(C)C` [compound 282], which EC50 is on record?
Answer: Its EC50 is under 1 nM.

Question: `COC(=O)N[C@H](C(=O)N1CCC[C@H]1c1ncc(-c2ccc(-c3ccc4cc(-c5c[nH]c([C@@H]6CCCN6C(=O)[C@@H](NC(=O)OC)C6CCOCC6)n5)cnc4c3)cc2)[nH]1)C(C)C` [compound 50] was tested. Which EC50 did it give?
Answer: The EC50 was under 1 nM.

Question: `COC(=O)N[C@H](C(=O)N1CCC[C@H]1c1nc(-c2ccc3nc(-c4ccc(-c5cnc([C@@H]6CCCN6C(=O)[C@@H](NC(=O)OC)C6CCOCC6)[nH]5)cc4)ccc3c2)c[nH]1)C(C)C` [compound 42] was tested. Which EC50 did it give?
Answer: Its EC50 is under 1 nM.

Question: For `COC(=O)N[C@H](C(=O)N1CCC[C@H]1c1nc(-c2ccc3cc(-c4ccc(-c5cnc([C@@H]6CCCN6C(=O)[C@H](NC(=O)N6CC[C@H](O)C6)c6ccccc6)[nH]5)cc4)ccc3c2)c[nH]1)C(C)C` [compound 16], which EC50 is on record?
Answer: The EC50 was under 1 nM.

Question: Which EC50 does the source give for `COC(=O)N[C@H](C(=O)N1CCC[C@H]1c1ncc(-c2ccc(-c3cccc4c(-c5cnc([C@@H]6CCCN6C(=O)[C@@H](NC(=O)OC)C(C)C)[nH]5)cccc34)cc2)[nH]1)C(C)C` [compound 20] here?
Answer: Its EC50 is under 1 nM.

Question: With `COC(=O)N[C@H](C(=O)N1CCC[C@H]1c1ncc(-c2ccc(-c3cc4ccc(-c5cnc([C@@H]6CCCN6C(=O)[C@@H](NC(=O)OC)C(C)C)[nH]5)cc4cn3)c(F)c2)[nH]1)C(C)C` [compound 150] as the molecule, how does the EC50 read?
Answer: Its EC50 is under 1 nM.

Question: With `COC(=O)N[C@H](C(=O)N1CCC[C@H]1c1ncc(-c2ccc3nc(-c4ccc(-c5cnc([C@@H]6CCCN6C(=O)[C@H](NC(=O)OC(C)(C)C)c6ccccc6)[nH]5)cc4F)ccc3c2)[nH]1)C1CCOCC1` [compound 135] as the molecule, how does the EC50 read?
Answer: Its EC50 is under 1 nM.

Question: Which EC50 does the source give for `COC(=O)N[C@H](C(=O)N1CCC[C@H]1c1ncc(-c2ccc(-c3ccc4cc(-c5c[nH]c([C@@H]6CCCN6C(=O)[C@@H](NC(=O)OC)C6CCOCC6)n5)ccc4c3)nc2)[nH]1)C(C)C` [compound 52] here?
Answer: Its EC50 is under 1 nM.

Question: How did the EC50 turn out when `COC(=O)N[C@H](C(=O)N1CCC[C@H]1c1ncc(-c2ccc(-c3nc4ccc(-c5cnc([C@@H]6CCCN6C(=O)[C@@H](NC(=O)OC)[C@@H](C)OC)[nH]5)cc4o3)cc2)[nH]1)C(C)C` [compound 253] was run?
Answer: The EC50 was under 1 nM.

Question: For `COC(=O)N[C@H](C(=O)N1CCC[C@H]1c1ncc(-c2ccc(-c3ccc4cc(-c5cnc([C@@H]6CCCN6C(=O)[C@@H](NC(=O)OC)C6CCOCC6)[nH]5)ccc4n3)c(F)c2)[nH]1)C(C)C` [compound 120], which EC50 is on record?
Answer: Its EC50 is under 1 nM.

Question: With `COC(=O)N[C@H](C(=O)N1CCC[C@H]1c1ncc(-c2ccc3cc(-c4ccc(-c5cnc([C@@H]6CCCN6C(=O)[C@H](NC(=O)OC)c6ccccc6)[nH]5)c(F)c4)ncc3c2)[nH]1)C1CCOCC1` [compound 127] as the molecule, how does the EC50 read?
Answer: The EC50 was under 1 nM.

Question: How did the EC50 turn out when `COC(=O)N[C@H](C(=O)N1CCC[C@H]1c1ncc(-c2ccc(-c3ccc4cc(-c5cnc([C@@H]6CCCN6C(=O)[C@H](NC(=O)OC(C)(C)C)c6ccccc6)[nH]5)ccc4n3)c(F)c2)[nH]1)C(C)C` [compound 122] was run?
Answer: The EC50 was under 1 nM.

Question: How did the EC50 turn out when `COC(=O)N[C@H](C(=O)N1CCC[C@H]1c1ncc(-c2ccc(-c3ccc4cc(-c5c[nH]c([C@@H]6CCCN6C(=O)[C@H](NC(=O)OC)c6ccccc6)n5)ccc4c3)c(F)c2)[nH]1)C1CCOCC1` [compound 106] was run?
Answer: Its EC50 is under 1 nM.

Question: `COC(=O)N[C@H](C(=O)N1CCC[C@H]1c1nc(-c2ccc3cc(-c4ccc(-c5cnc([C@@H]6CCCN6C(=O)[C@@H](NC(=O)OC)C6CCOCC6)[nH]5)cc4)ccc3c2)c[nH]1)C(C)C` [compound 46] was tested. Which EC50 did it give?
Answer: The EC50 was under 1 nM.

Question: `COC(=O)N[C@H](C(=O)N1CCC[C@H]1c1ncc(-c2ccc3cc(-c4ccc5nc([C@@H]6CCCN6C(=O)[C@@H](c6ccccc6)N(C)C)[nH]c5c4)ccc3c2)[nH]1)C(C)C` [compound 177] was tested. Which EC50 did it give?
Answer: Its EC50 is under 1 nM.

Question: How did the EC50 turn out when `COC(=O)N[C@H](C(=O)N1CCC[C@H]1c1ncc(-c2ccc(-c3ccc4cc(-c5c[nH]c([C@@H]6CCCN6C(=O)[C@H](NC(=O)NC6CC6)c6ccccc6)n5)ccc4n3)cc2)[nH]1)C(C)C` [compound 38] was run?
Answer: The EC50 was under 1 nM.

Question: How did the EC50 turn out when `COC(=O)N[C@H](C(=O)N1CCC[C@H]1c1nc(-c2ccc3nc(-c4ccc(-c5cnc([C@@H]6CCCN6C(=O)[C@@H](NC(=O)OC)C(C)C)[nH]5)cc4)cc(OC)c3c2)c[nH]1)C(C)C` [compound 79] was run?
Answer: Its EC50 is under 1 nM.

Question: `COC(=O)N[C@H](C(=O)N1CCC[C@H]1c1nc(-c2ccc3c(c2)CCN(c2c(F)cc(-c4cnc([C@@H]5CCCN5C(=O)[C@@H](NC(=O)OC)C(C)C)[nH]4)cc2F)C3)c[nH]1)C(C)C` [compound 269] was tested. Which EC50 did it give?
Answer: Its EC50 is under 1 nM.

Question: `COC(=O)N[C@H](C(=O)N1CCC[C@H]1c1nc2ccc(-c3ccc4cc(-c5ccc6nc([C@@H]7CCCN7C(=O)[C@@H](NC(=O)OC)C(C)C)[nH]c6c5)ccc4c3)cc2[nH]1)C(C)C` [compound 276] was tested. Which EC50 did it give?
Answer: The EC50 was under 1 nM.

Question: With `COC(=O)N[C@H](C(=O)N1CCC[C@H]1c1nc(-c2ccc3cc(-c4ccc(-c5cnc([C@@H]6CCCN6C(=O)[C@@H](c6ccccc6)N6CCCC6)[nH]5)cc4)ccc3c2)c[nH]1)C(C)C` [compound 10] as the molecule, how does the EC50 read?
Answer: Its EC50 is under 1 nM.

Question: `COC(=O)N[C@@H](C(=O)N1CCC[C@H]1c1ncc(-c2ccc(-c3nc4cc(-c5cnc([C@@H]6CCCN6C(=O)[C@H](NC(=O)OC)c6ccccc6)[nH]5)ccc4o3)cc2)[nH]1)c1ccccc1` [compound 237] was tested. Which EC50 did it give?
Answer: Its EC50 is under 1 nM.

Question: With `COC(=O)N[C@H](C(=O)N1CCC[C@H]1c1nc2ccc(-c3ccc4cc(-c5cnc([C@@H]6CCCN6C(=O)[C@H](NC(=O)OC)c6ccccc6)[nH]5)ccc4n3)cc2[nH]1)C(C)C` [compound 196] as the molecule, how does the EC50 read?
Answer: The EC50 was under 1 nM.

Question: How did the EC50 turn out when `COC(=O)N[C@H](C(=O)N1CCC[C@H]1c1ncc(-c2ccc(-c3ccc4cc(-c5c[nH]c([C@@H]6CCCN6C(=O)[C@H](NC(=O)OC)c6ccccc6)n5)ccc4n3)cc2)[nH]1)C1CCOCC1` [compound 90] was run?
Answer: Its EC50 is under 1 nM.

Question: How did the EC50 turn out when `COC(=O)N[C@H](C(=O)N1CCC[C@H]1c1nc(-c2ccc3cc(-c4ccc(-c5cnc([C@@H]6CCCN6C(=O)[C@H](NC(=O)OC)c6ccc(F)cc6)[nH]5)cc4)ccc3c2)c[nH]1)C1CCOCC1` [compound 111] was run?
Answer: The EC50 was under 1 nM.

Question: `COC(=O)N[C@H](C(=O)N1CCC[C@H]1c1nc2ccc(-c3ccc4cc(-c5cnc([C@@H]6CCCN6C(=O)[C@H](NC(=O)OC)c6ccccc6)[nH]5)ccc4c3)nc2[nH]1)C(C)C` [compound 200] was tested. Which EC50 did it give?
Answer: Its EC50 is under 1 nM.

Question: How did the EC50 turn out when `COC(=O)N[C@H](C(=O)N1CCC[C@H]1c1nc(-c2cnc3cc(-c4ccc(-c5cnc([C@@H]6CCCN6C(=O)[C@@H](NC(=O)OC)C6CCOCC6)[nH]5)cc4)ccc3c2)c[nH]1)C1CCOCC1` [compound 73] was run?
Answer: The EC50 was under 1 nM.

Question: For `COC(=O)N[C@H](C(=O)N1CCC[C@H]1c1ncc(-c2ccc3cc(-c4ccc(-c5cnc([C@@H]6CCCN6C(=O)[C@H](NC(=O)OC6CCOCC6)c6ccccc6)[nH]5)cc4)ncc3c2)[nH]1)C1CCOCC1` [compound 117], which EC50 is on record?
Answer: The EC50 was under 1 nM.

Question: For `COC(=O)N[C@H](C(=O)N1CCC[C@H]1c1ncc(-c2ccc(-c3nc4cc(-c5cnc([C@@H]6CCCN6C(=O)[C@@H](NC(=O)OC)C(C)C)[nH]5)ccc4n3C)cc2)[nH]1)C(C)C` [compound 232], which EC50 is on record?
Answer: Its EC50 is under 1 nM.

Question: Which EC50 does the source give for `COC(=O)N[C@H](C(=O)N1CCC[C@H]1c1ncc(-c2ccc(-c3ccc4cc(-c5c[nH]c([C@@H]6CCCN6C(=O)[C@H](NC(=O)OC)c6ccccc6)n5)ccc4c3)cc2)[nH]1)C(C)C` [compound 7] here?
Answer: The EC50 was under 1 nM.

Question: With `COC(=O)N[C@H](C(=O)N1CCC[C@H]1c1nc(-c2ccc3cc(-c4ccc(-c5cnc([C@@H]6CCCN6C(=O)[C@@H](NC(=O)OC)C6CCOCC6)[nH]5)nc4)ccc3c2)c[nH]1)C(C)C` [compound 84] as the molecule, how does the EC50 read?
Answer: Its EC50 is under 1 nM.

Question: With `COC(=O)N[C@H](C(=O)N1CCC[C@H]1c1ncc(-c2ccc(-c3nc4ccc(-c5cnc([C@@H]6CCCN6C(=O)[C@H](NC(=O)OC(C)(C)C)c6ccccc6)[nH]5)cc4o3)cc2)[nH]1)C(C)C` [compound 247] as the molecule, how does the EC50 read?
Answer: The EC50 was under 1 nM.

Question: Which EC50 does the source give for `COC(=O)N[C@H](C(=O)N1CCC[C@H]1c1ncc(-c2ccc(-c3ccc4cc(-c5c[nH]c([C@@H]6CCCN6C(=O)[C@@H](c6ccccc6)N(C)C)n5)ccc4c3)cc2)[nH]1)C(C)C` [compound 6] here?
Answer: The EC50 was under 1 nM.

Question: `COC(=O)N[C@H](C(=O)N1CCC[C@H]1c1ncc(-c2ccc3cc(-c4ccc5nc([C@@H]6CCCN6C(=O)[C@@H](NC(=O)OC)C6CCOCC6)[nH]c5n4)ccc3c2)[nH]1)C(C)C` [compound 202] was tested. Which EC50 did it give?
Answer: The EC50 was under 1 nM.

Question: For `COC(=O)N[C@H](C(=O)N1CCC[C@H]1c1ncc(-c2ccc(-c3nc4ccc(-c5cnc([C@@H]6CCCN6C(=O)[C@H](NC(=O)OC)c6ccccc6)[nH]5)cc4s3)cc2)[nH]1)C(C)C` [compound 241], which EC50 is on record?
Answer: The EC50 was under 1 nM.

Question: With `COC(=O)N[C@H](C(=O)N1CCC[C@H]1c1nc2ccc(-c3ccc4cc(-c5cnc([C@@H]6CCCN6C(=O)[C@H](NC(=O)N6CC[C@H](O)C6)c6ccccc6)[nH]5)ccc4c3)cc2[nH]1)C(C)C` [compound 183] as the molecule, how does the EC50 read?
Answer: The EC50 was under 1 nM.

Question: How did the EC50 turn out when `COC(=O)N[C@H](C(=O)N1CCC[C@H]1c1ncc(-c2ccc(-c3ccc4cc(-c5c[nH]c([C@@H]6CCCN6C(=O)[C@H](NC(=O)OC)c6ccccc6)n5)ccc4c3)cc2)[nH]1)C1CCOCC1` [compound 105] was run?
Answer: The EC50 was under 1 nM.
